From patent US7598258B2, “Quinoline derivatives and quinazoline derivatives inhibiting autophosphorylation of macrophage colony stimulating factor receptor” (Kirin Beer Kabushiki Kaisha, priority 2002, dated 2009) come the findings set out here.

pIC50: −log10 of the molar value.

This assay concerns the target T1, mouse c-fms (Mus musculus, UniProt P09581).
T1 construct: Macrophage-like cell line BAC-1.2F5 which expresses c-fms as a M-CSF receptor on cell membranes; endogenous in cells; host or cells: BAC-1.2F5 mouse macrophage-like cell line
T1 sequence (P09581 20-977): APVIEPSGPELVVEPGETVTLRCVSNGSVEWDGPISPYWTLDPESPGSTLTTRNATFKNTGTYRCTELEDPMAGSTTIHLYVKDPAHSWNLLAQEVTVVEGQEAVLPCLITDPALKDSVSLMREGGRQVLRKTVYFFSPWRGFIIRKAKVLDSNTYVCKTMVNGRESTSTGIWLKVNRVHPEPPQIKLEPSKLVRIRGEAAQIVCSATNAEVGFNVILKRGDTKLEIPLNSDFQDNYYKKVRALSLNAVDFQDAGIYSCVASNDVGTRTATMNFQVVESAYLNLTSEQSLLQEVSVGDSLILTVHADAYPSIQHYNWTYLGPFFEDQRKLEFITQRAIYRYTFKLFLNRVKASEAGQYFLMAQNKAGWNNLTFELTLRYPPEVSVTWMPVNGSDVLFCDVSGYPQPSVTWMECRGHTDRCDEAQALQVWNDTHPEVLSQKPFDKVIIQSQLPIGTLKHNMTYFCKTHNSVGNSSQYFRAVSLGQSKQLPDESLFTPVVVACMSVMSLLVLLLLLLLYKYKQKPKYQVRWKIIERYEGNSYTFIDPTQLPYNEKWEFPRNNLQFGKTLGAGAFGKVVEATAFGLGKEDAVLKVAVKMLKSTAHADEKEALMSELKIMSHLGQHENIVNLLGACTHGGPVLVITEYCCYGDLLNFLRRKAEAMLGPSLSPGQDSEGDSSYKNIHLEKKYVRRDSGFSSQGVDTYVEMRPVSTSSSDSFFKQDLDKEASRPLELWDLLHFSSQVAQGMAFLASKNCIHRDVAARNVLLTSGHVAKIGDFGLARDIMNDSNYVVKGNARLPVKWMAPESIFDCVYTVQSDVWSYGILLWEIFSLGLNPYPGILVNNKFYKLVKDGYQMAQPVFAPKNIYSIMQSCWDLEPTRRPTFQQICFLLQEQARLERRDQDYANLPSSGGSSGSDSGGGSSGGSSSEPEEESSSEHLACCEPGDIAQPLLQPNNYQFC
Nature of the assay: Inhibition of c-fms autophosphorylation in macrophage-like cell line BAC-1.2F5 by M-CSF stimulation (ELISA). Format: cell-based. Particulars: BAC-1.2F5 cells, human recombinant M-CSF 50 ng/ml, read-out: c-fms autophosphorylation 50% inhibitory concentration (IC50). As for the experimental part: Macrophage-like cell line BAC-1.2F5 which expresses c-fms as a M-CSF receptor on cell membranes (CLAUDIA M. et al., J. Cell. Physiol., 130, 420-427 (1987), “Isolation and Characterization of a Cloned Growth Factor Dependent Macrophage Cell Line, BAC1.2F5”) was cultured at 37° C. in a DMEM medium containing L-cell supernatant and 10% fetal calf serum (GIBCO BRL) in a 5% CO2 incubator until about 50 to 70% confluent. The harvested cells were inoculated into wells, each containing the same medium, in a collagen type I coat 96-well flat-bottom plate in an amount of 5.0×10^4 per well, and cultured at 37° C. for 12 hr. Thereafter, the medium was replaced with a DMEM medium containing a 0.1% fetal calf serum and cultured for 12 hr. Thereafter, a test compound dissolved in dimethyl sulfoxide was added to each well, and cells were incubated at 37° C. for one hr. Human recombinant M-CSF was added to a final concentration of 50 ng/ml, and cells were stimulated at 37° C. for 6 min. After the medium was removed, 50 μl of a solubilization buffer (20 mM HEPES (pH 7.4), 150 mM NaCl, 0.2% Triton X-100, 10% glycerol, 5 mM sodium orthovanadylate, 5 mM disodium ethylenediaminetetraacetate, and 2 mM Na4P2O7) was added thereto. The mixture was shaken at 4° C. for 2 hr to prepare a cell extract as an assay sample which was then used for an ELISA assay.
The plate for the ELISA assay was prepared as follows. Phosphate buffered saline (50 μl, pH 7.4) containing 5 μg/ml of anti-phospho-tyrosine antibody (PY20; Transduction Laboratories) was added to a microplate for ELISA (Maxisorp; purchased from NUNC), followed by standing at 4° C. overnight to be immobilized on the wells. Thereafter, each well was washed twice with 200 μl of a Ca- and Mg-free phosphate buffer containing 0.1% Tween-20 (hereinafter referred to as “PBS-T”), and 200 μl of a blocking solution (Dainippon Pharmaceutical Co. Ltd.: BlockAce) was added to each well, and the wells were then allowed to stand at room temperature for 2 hr for blocking.
Separately, phosphate buffered saline (50 μl, pH 7.4) containing 5 μg/ml of anti-phospho-tyrosine antibody (PY20; Transduction Laboratories) was added to a microplate for ELISA (Maxisorp; purchased from NUNC), followed by standing at 4° C. overnight to form a solid phase on the wells. After washing of the plate, 300 μl of a blocking solution was added, followed by standing at room temperature for 2 hr to perform blocking. After washing, the whole quantity of the cell extract was transferred to the wells, and the plate was then allowed to stand at 4° C. overnight. After washing, anti-c-fms antiserum (Upstate Biotechnology, Inc.) was allowed to react at room temperature for one hr, and, after washing, a peroxidase-labeled anti-rabbit Ig antibody (Amersham) was allowed to react at room temperature for one hr. After washing, a chromophoric substrate for peroxidase (Sumitomo Bakelite Co., Ltd.) was added thereto to initiate a reaction. After a suitable level of color development, a reaction termination solution was added to stop the reaction, and the absorbance at 450 nm was measured with a microplate reader. The c-fms phosphorylation activity for each well was determined by presuming the absorbance without the addition of the test compound and with the addition of M-CSF to be 100% c-fms phosphorylation activity and the absorbance without the addition of the test compound and M-CSF to be 0% c-fms phosphorylation activity. The concentration of the test compound was varied on several levels, the c-fms phosphorylation inhibitory rate was determined for each case, and the concentration of the test compound necessary for inhibiting 50% of c-fms phosphorylation (IC50) was calculated.
Regarding `COc1cc2nccc(Oc3ccc(NC(=O)NC(C)c4ccc(F)cc4)cc3Cl)c2cc1OC` (stereo not drawn) [Example 10, N-{3-Chloro-4-[(6,7-dimethoxy-4-quinolyl)oxy]phenyl}-N′-[1-(4-fluorophenyl)ethyl]urea], the pIC50 is 8.15.
The same measure for `COc1cc2nccc(Oc3cc(C)c(NC(=O)N[C@H](C)c4cccc(Br)c4)cc3C)c2cc1OC` [Example 56, N-[(1R)-1-(3-Bromophenyl)ethyl]-N′-{4-[(6,7-dimethoxy-4-quinolyl)oxy]-2,5-dimethylphenyl}urea]: 6.71; for `COc1cc2nccc(Oc3cc(C)c(NC(=O)N[C@@H](C)c4ccc(F)cc4)cc3C)c2cc1OC` [Example 8, N-{4-[(6,7-Dimethoxy-4-quinolyl)oxy]-2,5-dimethylphenyl}-N′-[(1S)-1-(4-fluorophenyl)ethyl]urea]: 7.65; for `COc1cc2nccc(Oc3ccc(NC(=O)NC(C)c4ccc(F)cc4)c(C)c3C)c2cc1OC` (stereo not drawn) [Example 25, N-{4-[(6,7-Dimethoxy-4-quinolyl)oxy]-2,3-dimethylphenyl}-N′-[1-(4-fluorophenyl)ethyl]urea]: 7.66.
The same measure for `COc1cc2nccc(Oc3ccc(NC(=O)NC(C)c4ccc(F)cc4)c(F)c3)c2cc1OC` (stereo not drawn) [Example 28, N-{4-[(6,7-Dimethoxy-4-quinolyl)oxy]-2-fluorophenyl}-N′-[1-(4-fluorophenyl)ethyl]urea]: 8.19; for `COc1cc(Oc2ccnc3cc(OC)c(OC)cc23)ccc1NC(=O)NC(C)c1ncc(C)s1` (stereo not drawn) [Example 105, N-{4-[(6,7-Dimethoxy-4-quinolyl)oxy]-2-methoxyphenyl}-N′-[1-(5-methyl-1,3-thiazol-2-yl)ethyl]urea]: 7.90.
The same measure for `COc1cc2nccc(Oc3ccc(NC(=O)NC(C)c4nc(C)cs4)c(C(F)(F)F)c3)c2cc1OC` (stereo not drawn) [Example 92, N-[4-[(6,7-Dimethoxy-4-quinolyl)oxy]-2-(trifluoromethyl)phenyl]-N′-[1-(4-methyl-1,3-thiazol-2-yl)ethyl]urea]: 8.08; for `COc1cc2nccc(Oc3ccc(NC(=O)N[C@@H](C)c4ccccc4OC)cc3)c2cc1OC` [Example 51, N-{4-[(6,7-Dimethoxy-4-quinolyl)oxy]phenyl}-N′-[(1S)-1-(2-methoxyphenyl)ethyl]urea]: 8.12.
Consider `COc1cc2nccc(Oc3ccc(NC(=O)NC(C)c4nc(C)cs4)cc3F)c2cc1OC` (stereo not drawn) [Example 89, N-{4-[(6,7-Dimethoxy-4-quinolyl)oxy]-3-fluorophenyl}-N′-[1-(4-methyl-1,3-thiazol-2-yl)ethyl]urea], for which the pIC50 was 8.51.
Next, `COc1cc2nccc(Oc3ccc(NC(=O)N[C@H](C)c4ccc(F)cc4)cc3F)c2cc1OC` [Example 33, N-{4-[(6,7-Dimethoxy-4-quinolyl)oxy]-3-fluorophenyl}-N′-[(1R)-1-(4-fluorophenyl)ethyl]urea]: 8.19; `COc1cc2nccc(Oc3ccc(NC(=O)N[C@@H](C)c4ccc(F)cc4)cc3F)c2cc1OC` [Example 32, N-{4-[(6,7-Dimethoxy-4-quinolyl)oxy]-3-fluorophenyl}-N′-[(1S)-1-(4-fluorophenyl)ethyl]urea]: 8.46; `COc1cc2nccc(Oc3ccc(NC(=O)N[C@H](C)c4ccc(F)cc4)c(Cl)c3)c2cc1OC` [Example 6, N-{2-Chloro-4-[(6,7-dimethoxy-4-quinolyl)oxy]phenyl}-N′-[(1R)-1-(4-fluorophenyl)ethyl]urea]: 8.22.
The same measure for `COc1cc2nccc(Oc3cc(C)c(NC(=O)NC(C)c4nc(C)cs4)cc3C)c2cc1OC` (stereo not drawn) [Example 93, N-{4-[(6,7-Dimethoxy-4-quinolyl)oxy]-2,5-dimethylphenyl}-N′-[1-(4-methyl-1,3-thiazol-2-yl)ethyl]urea]: 7.41.
For `COc1cc2nccc(Oc3ccc(NC(=O)N[C@@H](C)c4ccc(F)cc4)c(Cl)c3)c2cc1OC` [Example 5, N-{2-Chloro-4-[(6,7-dimethoxy-4-quinolyl)oxy]phenyl}-N′-[(1S)-1-(4-fluorophenyl)ethyl]urea], the pIC50 is 8.66.
As to `COc1cc2c(Oc3ccc(NC(=O)NC(C)c4ccc(F)c(F)c4)cc3F)ccnc2cc1OCCCN1CCOCC1` (stereo not drawn) [Example 65, N-[1-(3,4-Difluorophenyl)ethyl]-N′-(3-fluoro-4-{[6-methoxy-7-(3-morpholinopropoxy)-4-quinolyl]oxy}phenyl)urea], the pIC50 was 7.86.
The same measure for `COc1cc2c(Oc3ccc(NC(=O)NC(C)c4ccc(F)cc4F)cc3F)ccnc2cc1OCCCN1CCOCC1` (stereo not drawn) [Example 66, N-[1-(2,4-Difluorophenyl)ethyl]-N′-(3-fluoro-4-{[6-methoxy-7-(3-morpholinopropoxy)-4-quinolyl]oxy}phenyl)urea]: 7.83.
For the molecule `COc1cc2c(Oc3ccc(NC(=O)NC(C)c4ccc(F)cc4)cc3F)ccnc2cc1OCCCN1CCOCC1` (stereo not drawn) [Example 64, N-(3-Fluoro-4-{[6-methoxy-7-(3-morpholinopropoxy)-4-quinolyl]oxy}phenyl)-N′-[1-(4-fluorophenyl)ethyl]urea], the pIC50 was 8.03.
In the case of `COc1cc(Oc2ccnc3cc(OC)c(OC)cc23)ccc1NC(=O)NC(C)c1nccs1` (stereo not drawn) [Example 74, N-{4-[(6,7-Dimethoxy-4-quinolyl)oxy]-2-methoxyphenyl}-N′-[1-(1,3-thiazol-2-yl)ethyl]urea], the pIC50 was 8.30.
Next, `COc1cc(Oc2ccnc3cc(OC)c(OC)cc23)ccc1NC(=O)N[C@@H](C)c1ccc(F)cc1` [Example 17, N-{4-[(6,7-Dimethoxy-4-quinolyl)oxy]-2-methoxyphenyl}-N′-[(1S)-1-(4-fluorophenyl)ethyl]urea]: 8.41.
The same measure for `COc1cc2nccc(Oc3ccc(NC(=O)N[C@@H](C)c4nccs4)c(C(F)(F)F)c3)c2cc1OC` [Example 84, N-[4-[(6,7-Dimethoxy-4-quinolyl)oxy]-2-(trifluoromethyl)phenyl]-N′-[(1S)-1-(1,3-thiazol-2-yl)ethyl]urea]: 7.99; for `COc1cc2nccc(Oc3ccc(NC(=O)N[C@H](C)c4ccc(F)cc4)cc3OC)c2cc1OC` [Example 24, N-{4-[(6,7-Dimethoxy-4-quinolyl)oxy]-3-methoxyphenyl}-N′-[(1R)-1-(4-fluorophenyl)ethyl]urea]: 7.88.
